Measurements taken from patent US12655460B2, “Rapid antimicrobial susceptibility testing by image analysis” (Beth Israel Deaconess Medical Center, Inc., priority 2019, dated 2026).
≈ marks a conversion by molar mass, not a printed value.

Assays:
[1] = Rapid antimicrobial susceptibility testing (MIC) by flatbed-scanner imaging of doubling dilutions in a well plate, cefepime; assay type: cell-based
From the text: The dispensing technology may use well plate 205, which may be a standard 96-, 384-, or 1536-well microtiter plate. Well plate 205 contains doubling dilutions of antimicrobials. Any antimicrobials can be used. Antibiotics are mentioned as an example of an antimicrobial, but any antimicrobial or other treatment agent (e.g. antifungal, antiviral, anti-parasitic) can be used unless context clearly dictates otherwise. The doubling dilution series can be prepared at the time of use, or plates with doubling dilutions can be pre-made and stored with lyophilized antibiotics or with antibiotics in broth that are frozen and thawed before use. […] The positive blood culture broth or dilutions of the positive blood culture broth can be added to the wells using any of several liquid handling devices or manually or through use of an inkjet printer 210 which we determined can quantitatively print out positive blood culture broth.
(§1) Typically positive blood-culture broth has organisms at 5×10^9 colony-forming units per mL. In our experiments, we determined that this could be diluted 5-fold in sterile water and 0.3% tween-20 and this dilution dispensed at 250 nl per well to create a starting inoculum of approximately 2.5×10^7 per mL in wells in a 384 well plate containing a volume of 10 μl. […]

[2] = tested on: E. coli; assay: Rapid antimicrobial susceptibility testing (MIC) by flatbed-scanner imaging of doubling dilutions in a well plate, gentamicin; assay type: cell-based; parameters: unit not given here; conditions: 37° C.
From the text: The dispensing technology may use well plate 205, which may be a standard 96-, 384-, or 1536-well microtiter plate. Well plate 205 contains doubling dilutions of antimicrobials. Any antimicrobials can be used. Antibiotics are mentioned as an example of an antimicrobial, but any antimicrobial or other treatment agent (e.g. antifungal, antiviral, anti-parasitic) can be used unless context clearly dictates otherwise. The doubling dilution series can be prepared at the time of use, or plates with doubling dilutions can be pre-made and stored with lyophilized antibiotics or with antibiotics in broth that are frozen and thawed before use. In embodiments, 50 μl of broth are added to wells in well plate 205 and desired two-fold dilutions of antibiotics are added to wells using inkjet printing technology 210 as described in WO 2017/218202 A1, the entire contents of which are incorporated by reference for all purposes. In other embodiments, antibiotics can be added either manually or with any of several suitable liquid handling devices. Positive blood culture broth is then added to the microtiter wells. The positive blood culture broth or dilutions of the positive blood culture broth can be added to the wells using any of several liquid handling devices or manually or through use of an inkjet printer 210 which we determined can quantitatively print out positive blood culture broth.
as §1
We have made use of a CCD flatbed scanner to scan plates. In our example, the plates are incubated in a separate incubator and placed on a plate bed scanner at different time points for reading. Using a flatbed scanner, we have determined that accurate AST results can be obtained with incubation times of 1.5 hours or less. […]

## CO/N=C(\C(=O)N[C@@H]1C(=O)N2C(C(=O)[O-])=C(C[N+]3(C)CCCC3)CS[C@H]12)c1csc(N)n1 [cefepime]
[1]; 3 hours of incubation (graph 630)
  MIC: 31 µg/mL (≈ 64.5 µM)
[1]; 4 hours of incubation (graph 640)
  MIC: 31 µg/mL (≈ 64.5 µM)

## gentamicin
[2]; 2 hours of incubation (graph 520)
  MIC: 1.0
[2]; 3 hours of incubation (graph 530)
  MIC: 1.0
[2]; 4 hours of incubation (graph 540)
  MIC: 1.0
